This passage reports EC50 and Ki results from patent US7659245B2, “Macrocylic inhibitors of hepatitis C virus” (Tibotec Pharmaceuticals Ltd, priority 2005, dated 2010).

Structures are written as SMILES.

Experiment [1] deals with HCV replicons (Huh-7 luc/neo cells, NS3-NS5B regions of HCV type 1b). The experiment is described as follows: Replicon assay: inhibition of HCV RNA replication in Huh-Luc cells (luciferase read-out). It is filed as cell-based. As to conditions: Hepatitis C virus, Huh-7, 72 h, HCV type 1b replicon, luciferase activity after three days. As for the experimental part:
The in vitro antiviral activity against HCV of the compounds of formula (I) was tested in a cellular HCV replicon system based on Lohmann et al. (1999) Science 285:110-113, with the further modifications described by Krieger et al. (2001) Journal of Virology 75: 4614-4624 (incorporated herein by reference), which is further exemplified in the examples section. This model, while not a complete infection model for HCV, is widely accepted as the most robust and efficient model of autonomous HCV RNA replication currently available. […] It will be appreciated that it is important to distinguish between compounds that specifically interfere with HCV functions from those that exert cytotoxic or cytostatic effects in the HCV replicon model, and as a consequence cause a decrease in HCV RNA or linked reporter enzyme concentration. Assays are known in the field for the evaluation of cellular cytotoxicity based for example on the activity of mitochondrial enzymes using fluorogenic redox dyes such as resazurin. Furthermore, cellular counter screens exist for the evaluation of non-selective inhibition of linked reporter gene activity, such as firefly luciferase. Appropriate cell types can be equipped by stable transfection with a luciferase reporter gene whose expression is dependent on a constitutively active gene promoter, and such cells can be used as a counter-screen to eliminate non-selective inhibitors.
The compounds of formula (I) were examined for activity in the inhibition of HCV RNA replication in a cellular assay. […] The cellular assay was based on a bicistronic expression construct, as described by Lohmann et al. (1999) Science vol. 285 pp. 110-113 with modifications described by Krieger et al. (2001) Journal of Virology 75: 4614-4624, in a multi-target screening strategy. In essence, the method was as follows.
The assay utilized the stably transfected cell line Huh-7 luc/neo (hereafter referred to as Huh-Luc). This cell line harbors an RNA encoding a bicistronic expression construct comprising the wild type NS3-NS5B regions of HCV type 1b translated from an Internal Ribosome Entry Site (IRES) from encephalomyocarditis virus (EMCV), preceded by a reporter portion (FfL-luciferase), and a selectable marker portion (neo^R, neomycine phosphotransferase). The construct is bordered by 5′ and 3′ NTRs (non-translated regions) from HCV type 1b. Continued culture of the replicon cells in the presence of G418 (neo^R) is dependent on the replication of the HCV RNA. The stably transfected replicon cells that express HCV RNA, which replicates autonomously and to high levels, encoding inter alia luciferase, are used for screening the antiviral compounds.
The replicon cells were plated in 384 well plates in the presence of the test and control compounds which were added in various concentrations. Following an incubation of three days, HCV replication was measured by assaying luciferase activity (using standard luciferase assay substrates and reagents and a Perkin Elmer ViewLux™ ultraHTS microplate imager). Replicon cells in the control cultures have high luciferase expression in the absence of any inhibitor. The inhibitory activity of the compound on luciferase activity was monitored on the Huh-Luc cells, enabling a dose-response curve for each test compound. EC50 values were then calculated, which value represents the amount of the compound required to decrease by 50% the level of detected luciferase activity, or more specifically, the ability of the genetically linked HCV replicon RNA to replicate.
On the technique in general: In antiviral work, replicon cells carry a viral genome segment that copies itself.

Experiment [2] concerns the target full-length hepatitis C NS3 protease enzyme (HCV NS3/4A protease complexes) (Hepatitis C virus genotype 1a, UniProt P27958). Nature of the experiment: Inhibition assay (enzymatic assay) of HCV NS3/4A protease. It is filed as biochemical. To be noted: enzyme 1 nM, 25 μM NS4A cofactor, 0.5 μM depsipeptide substrate, 30° C., competitive model. As for the experimental part:
The aim of this in vitro assay is to measure the inhibition of HCV NS3/4A protease complexes by the compounds of the present invention. This assay provides an indication of how effective compounds of the present invention would be in inhibiting HCV NS3/4A proteolytic activity.
The inhibition of full-length hepatitis C NS3 protease enzyme was measured essentially as described in Poliakov, 2002 Prot Expression & Purification 25 363 371. Briefly, the hydrolysis of a depsipeptide substrate, Ac-DED(Edans)EEAbuψ[COO]ASK(Dabcyl)-NH2 (AnaSpec, San José, USA), was measured spectrofluorometrically in the presence of a peptide cofactor, KKGSVVIVGRIVLSGK (Åke Engström, Department of Medical Biochemistry and Microbiology, Uppsala University, Sweden). [Landro, 1997 #Biochem 36 9340-9348]. The enzyme (1 nM) was incubated in 50 mM HEPES, pH 7.5, 10 mM DTT, 40% glycerol, 0.1% n-octyl-D-glucoside, with 25 μM NS4A cofactor and inhibitor at 30° C. for 10 min, whereupon the reaction was initiated by addition of 0.5 μM substrate. Inhibitors were dissolved in DMSO, sonicated for 30 sec. and vortexed. The solutions were stored at −20° C. between measurements.
The final concentration of DMSO in the assay sample was adjusted to 3.3%. The rate of hydrolysis was corrected for inner filter effects according to published procedures. [Liu, 1999 Analytical Biochemistry 267 331-335]. Ki values were estimated by non-linear regression analysis (GraFit, Erithacus Software, Staines, MX, UK), using a model for competitive inhibition and a fixed value for Km (0.15 μM). A minimum of two replicates was performed for all measurements.

Chain of full-length hepatitis C NS3 protease enzyme (HCV NS3/4A protease complexes) (P27958 1027-1657, one chain of several): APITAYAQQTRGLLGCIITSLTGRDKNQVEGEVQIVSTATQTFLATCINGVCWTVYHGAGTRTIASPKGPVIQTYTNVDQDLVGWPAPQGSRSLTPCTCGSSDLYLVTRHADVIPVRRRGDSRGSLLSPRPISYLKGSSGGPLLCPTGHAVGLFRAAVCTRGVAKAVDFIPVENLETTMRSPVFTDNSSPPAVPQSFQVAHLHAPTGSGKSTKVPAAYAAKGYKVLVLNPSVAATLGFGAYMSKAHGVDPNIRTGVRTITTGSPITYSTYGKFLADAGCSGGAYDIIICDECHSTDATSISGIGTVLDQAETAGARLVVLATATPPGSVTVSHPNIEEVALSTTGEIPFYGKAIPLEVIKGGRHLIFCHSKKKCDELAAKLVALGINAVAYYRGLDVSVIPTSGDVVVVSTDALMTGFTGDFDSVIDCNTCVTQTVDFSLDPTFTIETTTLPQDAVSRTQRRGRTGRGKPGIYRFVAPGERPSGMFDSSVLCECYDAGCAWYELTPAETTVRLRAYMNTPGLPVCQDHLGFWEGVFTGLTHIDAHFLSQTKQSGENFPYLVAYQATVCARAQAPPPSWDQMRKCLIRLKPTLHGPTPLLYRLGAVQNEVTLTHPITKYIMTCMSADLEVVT

As for `COc1ccc2c(O[C@@H]3C[C@H]4C(=O)N[C@]5(C(=O)NS(=O)(=O)C6CC6)C[C@H]5/C=C\CCCCN(C)C(=O)[C@@H]4C3)nc(-c3ccccc3)nc2c1` [Compound 21, Cyclopropanesulfonic acid [17-(7-methoxy-2-phenyl-quinazolin-4-yloxy)-13-methyl-2,14-dioxo-3,13-diaza-tricyclo[13.3.0.0*4,6*]octadec-7-ene-4-carbonyl]-amide], in experiment [1], the EC50 fell in the range of 0.5 to 199 nM. In addition, the Ki in experiment [2] fell in the range of 0.1 to 4.9 nM.

Take `CN1CCCC/C=C\[C@@H]2C[C@@]2(C(=O)NS(=O)(=O)C2CC2)NC(=O)[C@@H]2C[C@@H](Oc3nc(-c4ccccc4)nc4ccccc34)C[C@H]2C1=O` [Compound 31, Cyclopropanesulfonic acid [13-methyl-2,14-dioxo-17-(2-phenylquinazolin-4-yl-oxy)3,13-diaza-tricyclo[13.3.0.0*4,6*]octadec-7-ene-4-carbonyl]amide]: in experiment [1], the EC50 was 0.5 to 199 nM. Further, the Ki in experiment [2] lay within 0.1 to 4.9 nM.

`CN1CCN(c2nc(O[C@@H]3C[C@H]4C(=O)N[C@]5(C(=O)NS(=O)(=O)C6CC6)C[C@H]5/C=C\CCCCN(C)C(=O)[C@@H]4C3)c3ccccc3n2)CC1` [Compound 34, Cyclopropanesulfonic acid {13-methyl-17-[2-(4-methyl-piperazin-1-yl)quinazolin-4-yloxy]-2,14-dioxo-3,13-diaza-tricyclo[13.3.0.0*4,6*]octadec-7-ene4-carbonyl}-amide]: in experiment [1], the EC50 lay within 200 to 990 nM. Further, the Ki in experiment [2] lay in the range of 5 to 99.9 nM.

With `CN1CCCC/C=C\[C@@H]2C[C@@]2(C(=O)NS(=O)(=O)C2CC2)NC(=O)[C@@H]2C[C@@H](Oc3nc(N4CCOCC4)nc4ccccc34)C[C@H]2C1=O` [Compound 36, Cyclopropanesulfonic acid [13-methyl-17-(2-morpholin-4-yl-quinazolin-4-yloxy)-2,14-dioxo-3,13-diaza-tricyclo[13.3.0.0*4,6*]octadec-7-ene-4-carbonyl]-amide], in experiment [1], the EC50 was in the range of 200 to 990 nM. The Ki in experiment [2] was 5 to 99.9 nM.

Regarding `CC(C)c1csc(-c2nc(O[C@@H]3C[C@H]4C(=O)N[C@]5(C(=O)NS(=O)(=O)C6CC6)C[C@H]5/C=C\CCCCN(C)C(=O)[C@@H]4C3)c3ccccc3n2)n1` [Compound 44, Cyclopropanesulfonic acid {17-[2-(4-isopropyl-thiazol-2-yl)-quinazolin-4-yloxy-]-13-methyl-2,14-dioxo-3,13-diaza-tricyclo[13.3.0.0*4,6*]octadec-7-ene-4-carbonyl}-amide], the EC50 in experiment [1] was 0.5 to 199 nM. Besides, the Ki in experiment [2] was 0.1 to 4.9 nM.

`COc1ccc2c(O[C@@H]3C[C@H]4C(=O)N[C@]5(C(=O)NS(=O)(=O)C6CC6)C[C@H]5/C=C\CCCCN(C)C(=O)[C@@H]4C3)nc(-c3nc(C(C)C)cs3)nc2c1` [Compound 45, Cyclopropanesulfonic acid {17-[2-(4-isopropyl-thiazol-2-yl)-7-methoxy-quinazolin-4-yloxy]-13-methyl-2,14-dioxo-3,13-diaza-tricyclo[13.3.0.0*4,6*]octadec-7-ene-4-carbonyl}-amide]: the EC50 in experiment [1] was in the range of 0.5 to 199 nM. This compound also showed an inhibition constant (Ki) in experiment [2] of 0.1 to 4.9 nM.

For the compound `COc1ccc2c(O[C@@H]3C[C@H]4C(=O)N[C@]5(C(=O)NS(=O)(=O)C6CC6)C[C@H]5/C=C\CCCCN(C)C(=O)N4C3)nc(-c3ccccc3)nc2c1` [Compound 53, Cyclopropanesulfonic acid [17-(7-methoxy-2-phenyl-quinazolin-4-yloxy)-13-methyl-2,14-dioxo-3,13,15-triaza-tricyclo[13.3.0.0*4,6*]octadec-7-ene-4-carbonyl]-amide], in experiment [1], the EC50 is 0.5 to 199 nM. The same compound had a Ki in experiment [2] of 0.1 to 4.9 nM.

Take `CC(C)Nc1nc(O[C@@H]2C[C@H]3C(=O)N[C@]4(C(=O)NS(=O)(=O)C5CC5)C[C@H]4/C=C\CCCCN(C)C(=O)[C@@H]3C2)c2ccccc2n1` [Compound 71, Cyclopropanesulfonic acid [17-(2-isopropylamino-quinazolin-4-yloxy)-13-methyl-2,14-dioxo-3,13-diaza-tricyclo[13.3.0.0*4,6*]octadec-7-ene-4-carbonyl]-amide]: the EC50 in experiment [1] lay in the range of 200 to 990 nM. Besides, the Ki in experiment [2] is 0.1 to 4.9 nM.

Take `CN1CCCC/C=C\[C@@H]2C[C@@]2(C(=O)NS(=O)(=O)C2CC2)NC(=O)[C@@H]2C[C@@H](Oc3nc(N4CCCC4)nc4ccccc34)C[C@H]2C1=O` [Compound 72, Cyclopropanesulfonic acid [13-methyl-2,14-dioxo-17-[2-pyrrolidin-1-yl)-quinazolin-4-yloxy]-3,13-diaza-tricyclo[13.3.0.0*4,6*]octadec-7-ene-4-carbonyl]-amide]: in experiment [1], the EC50 was 200 to 990 nM. The same compound had a Ki in experiment [2] of 0.1 to 4.9 nM.

For the compound `CN1CCCC/C=C\[C@@H]2C[C@@]2(C(=O)NS(=O)(=O)C2CC2)NC(=O)[C@@H]2C[C@@H](Oc3nc(-c4ccc(C#N)cc4)nc4ccccc34)C[C@H]2C1=O` [Compound 73, Cyclopropanesulfonic acid {17-[2-(4-cyano-phenyl)-quinazolin-4-yloxy]-13-methyl-2,14-dioxo-3,13-diaza-tricyclo[13.3.0.0*4,6*]octadec-7-ene-4-carbonyl}-amide], in experiment [1], the EC50 was greater than 10000 nM. In experiment [2], this compound showed a Ki of 100 to 1000 nM.

Regarding `COc1ccc2c(O[C@@H]3C[C@H]4C(=O)N[C@]5(C(=O)NS(=O)(=O)C6CC6)C[C@H]5/C=C\CCCCN(C)C(=O)[C@@H]4C3)nc(-c3ccccc3)nc2c1C` [Compound 89, Cyclopropanesulfonic acid [17-(7-methoxy-8-methyl-2-phenyl-quinazolin-4-yloxy)-13-methyl-2,14-dioxo-3,13-diaza-tricyclo[13.3.0.0*4,6*]octadec-7-ene-4-carbnyl]-amide], the EC50 in experiment [1] was 0.5 to 199 nM. In experiment [2], this compound yielded a Ki of 0.1 to 4.9 nM.

Consider `COc1ccc2c(O[C@@H]3C[C@H]4C(=O)N[C@]5(C(=O)NS(=O)(=O)C6CC6)C[C@H]5/C=C\CCCCN(C)C(=O)N4C3)nc(-c3ccccc3)nc2c1C` [Compound 94, Cyclopropanesulfonic acid [17-(7-methoxy-8-methyl-2-phenyl-quinazolin-4-yloxy)-13-methyl-2,14-dioxo-3,13,15-triaza-tricyclo[13.3.0.0*4,6*]octadec-7-ene-4-carbonyl]-amide], for which the EC50 in experiment [1] was 0.5 to 199 nM. In experiment [2], the Ki lay in the range of 0.1 to 4.9 nM.

Turning to `COc1ccc2c(O[C@@H]3C[C@H]4C(=O)NC5(C(=O)NS(=O)(=O)C6CC6)C[C@H]5/C=C\CCCCN(C)C(=O)N4C3)nc(-c3ccc(F)cc3)nc2c1C` (some centres unmarked) [Compound 98, Cyclopropanesulfonic acid {17-[2-(4-fluoro-phenyl-(7-methoxy-8-methyl-quinazolin-4-yloxy)-13-methyl-2,14-dioxo-3,13,15-triaza-tricyclo[13.3.0.0*4,6*]octadec-7-ene-4-carbonyl}-amide], the EC50 in experiment [1] fell in the range of 0.5 to 199 nM. For the same compound, in experiment [2], the Ki lay within 0.1 to 4.9 nM.

Usually EC50 stands for the concentration that produces a half-maximal response. A word on the Ki: it is a measure of affinity in units of concentration, obtained from inhibition or displacement. Lower therefore signals higher affinity.
